Consider 5 compounds from patent EP3170833B1, “20,23-PIPERIDINYL-5-O-MYCAMINOSYL-TYLONOLIDE POLYMORPHS” (Intervet International B.V., priority 2007, dated 2009).

Holding throughout (assay type): physicochemical
A short description of data set [1]: Dynamic vapor sorption (DVS). The settings on record: 25°C; for maximum water uptake: at 95% relative humidity. The method, then:
Dynamic vapor sorption ("DVS") measurements were obtained with a Projekt Messtechnik SPS11-100n water vapor sorption analyzer. The samples were placed into aluminum crucibles on a microbalance, and allowed to equilibrate at 25°C and 50% relative humidity before initiating the following pre-defined humidity program at 25°C: 50-95-0-50% relative humidity, and scanning with a 5% change in relative humidity per hour and with iso-humid equilibration periods at extreme values.

A short description of data set [2]: Thermogravimetry (TG / TG-FTIR): thermal stability. The settings on record: N2 atmosphere, heating rate of 10°C/min. The method, then:
Measurements of thermogravimetry coupled to Fourier transform infrared spectroscopy ("TG-FTIR") were obtained using a Netzsch Thermo-Microbalance TG 209 with a Bruker Vector 22 FT-IR Spectrometer using an aluminum crucible (with micro-hole or open), N2 atmosphere, heating rate of 10°C/min, and temperature range of 25-250°C.
Thermogravimetry ("TG") measurements were obtained with a Perkin Elmer TGS 2 thermogravimetric analyzer using an aluminum crucible (open), N2 atmosphere, heating rate of 10°C/min, and temperature range of 25-500°C.

Data set [3] can be described thus: Desolvation experiment: drying under vacuum. As to the method:
A weight loss of from about 8.7-10% occurred due to tBME liberation. This weight loss corresponds to 0.8-0.9 tBME molecule per molecule of 20,23-dipiperidinyl-5-O-mycaminosyl-tylonolide, assuming essentially pure 20,23-dipiperidinyl-5-O-mycaminosyl-tylonolide. Almost all the weight loss occurs above 90°C, with a sharp step when the temperature increases to greater than 100°C. Thus, the majority of the weight loss occurs at temperatures greater than the boiling point of tBME.
Example 7. Preparation of the Form III polymorph of 20,23-dipiperidinyl-5-O-mycaminosyl-tylonolide. The Form III polymorph of 20,23-dipiperidinyl-5-O-mycaminosyl-tylonolide was prepared by drying, under vacuum at ambient temperature for 20 hours, the ethyl acetate S1 crystalline solvate of 20,23-dipiperidinyl-5-O-mycaminosyl-tylonolide (50 mg) prepared in accordance with Example 6.
Although this procedure was successfully repeated for forming S2 solvate crystals, additional batches of S2 solvate crystals were formed by dissolving an additional amount of the Form II polymorph of 20,23-dipiperidinyl-5-O-mycaminosyl-tylonolide in tert-butyl methyl ether, seeding S2 solvate crystals from the first batch, and removing the tert-butyl methyl ether. In one experiment, the S2 crystalline solvate was prepared by dissolving the Form II polymorph of 20,23-dipiperidinyl-5-O-mycaminosyl-tylonolide (245.7 mg) in tert-butyl methyl ether (0.5 ml), and slowly evaporating a portion of the solvent at ambient temperature. After no crystals formed, additional tert-butyl methyl ether was added, followed by seeding S2 solvate crystals from the first batch. The solvent was then allowed to evaporate completely. The FT-Raman spectrum for these crystals was approximately identical to the FT-Raman spectrum for the crystals from the first batch. […] The FT-Raman spectra of the crystals after each drying step coincided to the FT-Raman spectrum from the first batch.

A further data set in a line: Solubility in tBME. The settings on record: solvent tBME.

Consider `CCC1OC(=O)CC(O)C(C)C(OC2OC(C)C(O)C(N(C)C)C2O)C(CCN2CCCCC2)CC(C)C(=O)C=CC(C)=CC1CN1CCCCC1` (stereo not drawn) [Form I polymorph, 20,23-dipiperidinyl-5-O-mycaminosyl-tylonolide], for which the maximum water uptake result in data set [1] is on record as “less than 1 % (by weight)”.
`CCC1OC(=O)CC(O)C(C)C(OC2OC(C)C(O)C(N(C)C)C2O)C(CCN2CCCCC2)CC(C)C(=O)C=CC(C)=CC1CN1CCCCC1` (stereo not drawn) [Form II polymorph, 20,23-dipiperidinyl-5-O-mycaminosyl-tylonolide]: the “temperature at which decomposition began” value in data set [2] (TG-FTIR) was “greater than 220 °C”. Besides, the maximum water uptake entry in data set [1] is recorded as “about 2 % (by weight)”.
As for `CCC1OC(=O)CC(O)C(C)C(OC2OC(C)C(O)C(N(C)C)C2O)C(CCN2CCCCC2)CC(C)C(=O)C=CC(C)=CC1CN1CCCCC1` (stereo not drawn) [Form III polymorph, 20,23-dipiperidinyl-5-O-mycaminosyl-tylonolide], in data set [2] (TG), the “temperature at which decomposition began” value is “greater than 270 °C”. For the same compound, the water uptake result in data set [1] (between 70 and 85% relative humidity) is recorded as “about 6%”.
With `CCC1OC(=O)CC(O)C(C)C(OC2OC(C)C(O)C(N(C)C)C2O)C(CCN2CCCCC2)CC(C)C(=O)C=CC(C)=CC1CN1CCCCC1` (stereo not drawn) [ethyl acetate S1 crystalline solvate, 20,23-dipiperidinyl-5-O-mycaminosyl-tylonolide], in data set [3] (vacuum drying at ambient temperature), the “conversion by vacuum drying” value is reported as “readily converted into the Form III polymorph”.
As to `CC[C@H]1OC(=O)C[C@@H](O)[C@H](C)[C@@H](O[C@@H]2O[C@H](C)[C@@H](O)[C@H](N(C)C)[C@H]2O)[C@@H](CCN2CCCCC2)C[C@@H](C)C(=O)/C=C/C(C)=C/[C@@H]1CN1CCCCC1` [tBME S2 crystalline solvate, 20,23-dipiperidinyl-5-O-mycaminosyl-tylonolide], the stability result in data set [3] (60°C at 1 mbar (absolute) for 1 day) is on record as “exhibits stability”. Besides, the “loss of solvent upon drying under vacuum” value in data set [3] (at both ambient temperature and 70°C) is “no loss of solvent was observed”. For the same compound, in “Solubility in tBME”, the solubility (commonly the concentration that dissolves in the medium under given conditions) was in the range of 40 to 50 mg/mL.
